The Deep4Chem optical property database

Assay: solvent given as SMILES

O=C1OC(c2ccccc2)=N/C1=C\c1ccc(N(c2ccc(/C=C3\N=C(c4ccccc4)OC3=O)cc2)c2ccc(/C=C3/N=C(c4ccccc4)OC3=O)cc2)cc1
absorption maximum (in C1CCCCC1): 497.5 nm | absorption maximum (in C1CCOC1): 500 nm | absorption maximum (in C1COCCO1): 502 nm | absorption maximum (in CC1CCCCC1): 498.5 nm | absorption maximum (in CC#N): 498 nm | absorption maximum (in CC(C)=O): 499 nm | absorption maximum (in CC(C)CC(C)(C)C): 492 nm | absorption maximum (in CCCCC): 489 nm | absorption maximum (in CCCCCC): 491 nm | absorption maximum (in CCCCCCC): 495 nm | absorption maximum (in CCCCOCCCC): 497.5 nm | absorption maximum (in CCOC(C)=O): 496 nm | absorption maximum (in CCOCC): 496.5 nm | absorption maximum (in CN(C)C=O): 504 nm | absorption maximum (in CS(C)=O): 506 nm | absorption maximum (in Cc1ccccc1): 505.5 nm | absorption maximum (in ClC(Cl)Cl): 509.5 nm

CC1=[N+]2C(=C(C3=CC4OCCOCCOCCOCCOC4C=C3)c3c4ccccc4c(/C=C/c4ccc(N(C)C)cc4)n3[B-]2(F)F)c2ccccc21 (stereo not drawn)
absorption maximum (in CC#N): 693 nm

COc1ccc(-n2c3ccccc3c3cc(/C=C/C(=C(C#N)C#N)c4ccccc4)ccc32)cc1
absorption maximum (in C1CCOC1): 448 nm | absorption maximum (in CC#N): 444 nm | absorption maximum (in CC(C)=O): 445 nm | absorption maximum (in CCOC(C)=O): 443 nm | absorption maximum (in CO): 449 nm | absorption maximum (in CS(C)=O): 454 nm | absorption maximum (in Cc1ccccc1): 450 nm | absorption maximum (in ClC(Cl)Cl): 459 nm

c1ccc2c(c1)c1ccccc1c1ncncc21
absorption maximum (in ClCCl): 346 nm

Cc1ccc(C2=C3C=CC(Sc4ccccc4)=[N+]3[B-](F)(F)n3c(Sc4ccccc4)ccc32)cc1
absorption maximum (in C1CCOC1): 577 nm

CCCCCCCCOC(=O)c1cc2ccc3ccccc3c2c(C#N)c1N
absorption maximum (in Cc1ccccc1): 435 nm

CCN(CC)c1ccc2c(c1)oc(=O)c1cc3cnn(-c4ccccc4)c3nc12
absorption maximum (in ClCCl): 379 nm

CCCCN(CCCC)c1ccc(C#Cc2cc(C#Cc3cc(C(F)(F)F)cc(C(F)(F)F)c3)c(C#Cc3cc(C(F)(F)F)cc(C(F)(F)F)c3)cc2C#Cc2ccc(N(CCCC)CCCC)cc2)cc1
absorption maximum (in ClCCl): 410 nm

c1ccc(-c2cc(-c3ccc(N(c4ccccc4)c4ccccc4)cc3)cc(-c3ccccc3)n2)cc1
absorption maximum (in CC#N): 357 nm | absorption maximum (in CCCCCC): 354 nm | absorption maximum (in CCO): 362 nm | absorption maximum (in CO): 359 nm | absorption maximum (in ClCCl): 360 nm

CC1(C)CC(=O)c2cc(F)cc(F)c2N1
absorption maximum (in CC#N): 377 nm | absorption maximum (in CCO): 386 nm

COC(=O)c1ccc(C(=O)NC(C)(C)C)c2c1ccc1c3ccccc3c3ccccc3c12
absorption maximum (in ClCCl): 336 nm

COc1cn2cc(-c3ccc(C#N)cc3)[n-][n+]2c1
absorption maximum (in ClCCl): 378 nm

COc1nc(Nc2ccc3c4c(cccc24)C(=O)c2ccccc2-3)nc(OC)n1
absorption maximum (in CC#N): 413.91 nm | absorption maximum (in CC(C)O): 421.94 nm | absorption maximum (in CCCCOCCCC): 421.94 nm | absorption maximum (in CCOC(C)=O): 418.94 nm | absorption maximum (in CO): 419.99 nm | absorption maximum (in Cc1ccccc1): 426.99 nm

Cc1cc(O)c(C(=O)/C=C/c2ccccc2[N+](=O)[O-])c(=O)o1
absorption maximum (in CC#N): 352 nm | absorption maximum (in ClCCl): 365 nm

CC1(C)c2ccccc2N(c2cccc(S(=O)(=O)c3cccc(N4c5ccccc5C(C)(C)c5ccccc54)c3)c2)c2ccccc21
absorption maximum (in C1CCOC1): 281 nm | absorption maximum (in Cc1ccccc1): 301 nm | absorption maximum (in ClC(Cl)Cl): 287 nm

CCOc1ccc(/C=C/C=C/C=C/c2ccc([N+](=O)[O-])cc2)cc1
absorption maximum (in CC1CCCCC1): 414 nm | absorption maximum (in CC#N): 412 nm | absorption maximum (in Cc1ccccc1): 419 nm | absorption maximum (in ClCCl): 420 nm

CCc1c(C)[nH]c(C2=[N+]3C(=Cc4c(C)cc(C)n4[B-]3(F)F)c3ccccc32)c1C
absorption maximum (in C1CCOC1): 615 nm | absorption maximum (in CC#N): 607 nm | absorption maximum (in CCCCCC): 616 nm | absorption maximum (in CO): 610 nm | absorption maximum (in Cc1ccccc1): 623 nm | absorption maximum (in ClCCl): 616 nm

CCC1(CC)c2cc(B(c3c(C)cc(C)cc3C)c3c(C)cc(C)cc3C)ccc2-c2ccc(N(c3ccccc3)c3ccccc3)cc21
absorption maximum (in C1CCOC1): 400 nm | absorption maximum (in CC#N): 394 nm | absorption maximum (in CC(C)=O): 398 nm | absorption maximum (in CCCCCC): 401 nm | absorption maximum (in CN(C)C=O): 396 nm | absorption maximum (in Cc1ccccc1): 403 nm | absorption maximum (in ClC(Cl)Cl): 402 nm
